The source of these data is patent publication US20150031668A1, “CHROMAN DERIVATIVES AS TRPM8 INHIBITORS” (AMGEN INC., priority 2013, published 2015).

Where a name gives a salt, the structure may show the parent alone.

T1 sequence (Q7Z2W7 whole entry): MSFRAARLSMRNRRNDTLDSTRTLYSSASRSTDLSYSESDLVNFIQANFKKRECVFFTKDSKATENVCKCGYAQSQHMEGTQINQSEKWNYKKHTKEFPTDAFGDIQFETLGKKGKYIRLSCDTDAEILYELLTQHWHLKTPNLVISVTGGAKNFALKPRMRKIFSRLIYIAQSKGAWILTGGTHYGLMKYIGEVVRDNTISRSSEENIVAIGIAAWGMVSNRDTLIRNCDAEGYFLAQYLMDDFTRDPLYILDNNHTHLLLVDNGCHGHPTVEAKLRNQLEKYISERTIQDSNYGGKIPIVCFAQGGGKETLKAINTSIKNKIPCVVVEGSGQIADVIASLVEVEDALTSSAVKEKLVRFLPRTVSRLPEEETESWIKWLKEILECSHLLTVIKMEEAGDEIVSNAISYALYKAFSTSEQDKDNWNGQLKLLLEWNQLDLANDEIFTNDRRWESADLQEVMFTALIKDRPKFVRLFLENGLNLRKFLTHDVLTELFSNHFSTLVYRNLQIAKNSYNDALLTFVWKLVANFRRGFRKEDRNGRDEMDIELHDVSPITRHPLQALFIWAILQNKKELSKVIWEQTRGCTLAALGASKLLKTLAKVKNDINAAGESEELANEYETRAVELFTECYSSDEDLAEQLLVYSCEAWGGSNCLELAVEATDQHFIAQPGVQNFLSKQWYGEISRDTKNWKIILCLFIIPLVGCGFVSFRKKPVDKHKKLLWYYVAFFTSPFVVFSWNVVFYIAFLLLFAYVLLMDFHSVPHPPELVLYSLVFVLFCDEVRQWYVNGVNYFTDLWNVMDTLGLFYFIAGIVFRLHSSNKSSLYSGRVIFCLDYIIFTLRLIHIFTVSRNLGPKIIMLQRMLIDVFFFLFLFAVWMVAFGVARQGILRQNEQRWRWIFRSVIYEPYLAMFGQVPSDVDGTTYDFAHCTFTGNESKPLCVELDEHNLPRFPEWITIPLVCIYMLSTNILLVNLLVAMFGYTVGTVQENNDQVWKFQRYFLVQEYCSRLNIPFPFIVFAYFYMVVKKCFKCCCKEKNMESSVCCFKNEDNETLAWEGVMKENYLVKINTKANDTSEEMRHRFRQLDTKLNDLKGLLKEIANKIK

The experiment addresses T1, human TRPM8 (Homo sapiens, UniProt Q7Z2W7).
T1 construct: expressed in transfected cells; host or cells: Chinese hamster ovary (CHO) cells, T-REx tetracycline-inducible expression system (Invitrogen); co-transfected with pcDNA3.1 aequorin
The experiment in a line: Luminescence readout assay for measuring intracellular calcium (aequorin, CHO cells expressing human TRPM8; icilin, L-menthol or cold activation). Type of experiment: cell-based. The settings on record: CHO cells expressing human TRPM8, icilin activation (1 μM), aequorin luminescence; read-out: hTRPM8 IC50. As to the method: Luminescence Readout Assay for Measuring Intracellular Calcium
A stable Chinese hamster ovary cell line expressing human TRPM8 was generated using tetracycline inducible T-REx™ expression system from Invitrogen, Inc. (Carlsbad, Calif.). […] Twenty four hours before the assay, cells were seeded in 96-well plates and TRPM8 expression was induced with 0.5 μg/ml tetracycline. On the day of the assay, culture media was removed and cells were incubated with assay buffer
Potential antagonists were added 2.5 min prior to the addition of agonist, 1 μM icilin, 100 μM L-menthol, or 1 min prior to the addition of cold buffer (<10° C.). The luminescence was measured by a CCD camera based FLASH-luminometer built by Amgen, Inc. A cooling device attached to FLASH luminometer was used for cold activation.
(A change in cytosolic calcium serves as a functional read-out for many receptors and channels.)
Regarding `COc1ccc2cc(C(=O)N[C@]3(c4ccc(OC(F)(F)F)cc4)CCOc4cccnc43)cnc2c1` [Example 225, (S)-7-methoxy-N-(4-(4-(trifluoromethoxy)phenyl)-3,4-dihydro-2H-pyrano[3,2-b]pyridin-4-yl)quinoline-3-carboxamide formate], the IC50 is 12 nM.
In the case of `O=C(N[C@]1(c2ccc(-c3ccccn3)cc2)CCOc2cccnc21)c1ccc(F)cc1` [Example 112, (S)-4-fluoro-N-(4-(4-(pyridin-2-yl)phenyl)-3,4-dihydro-2H-pyrano[3,2-b]pyridin-4-yl)benzamide], the IC50 turned out to be 233 nM.
Under `N#CCc1ccc([C@@]2(NC(=O)c3ccc(F)cc3)CCOc3cccnc32)cc1` [Example 111, (S)—N-(4-(4-(cyanomethyl)phenyl)-3,4-dihydro-2H-pyrano[3,2-b]pyridin-4-yl)-4-fluorobenzamide] stands 1520 nM.
Turning to `O=C(N[C@]1(c2ccc(OC(F)(F)F)c(F)c2)CCOc2cccnc21)c1ccc(C(=O)O)c(Cl)c1` [Example 197, (S)-2-chloro-4-((4-(3-fluoro-4-(trifluoromethoxy)phenyl)-3,4-dihydro-2H-pyrano[3,2-b]pyridin-4-yl)carbamoyl) benzoic acid 2,2,2-trifluoroacetate], the IC50 turned out to be 92 nM.
For the compound `O=C(N[C@]1(c2ccc(OC(F)(F)F)cc2)CCOc2cccnc21)c1c[nH]c(=O)c2ccccc12` [Example 272, (S)-1-oxo-N-(4-(4-(trifluoromethoxy)phenyl)-3,4-dihydro-2H-pyrano[3,2-b]pyridin-4-yl)-1,2-dihydroisoquinoline-4-carboxamide formate], the IC50 came out at 183 nM.
Under `COc1ccc(C(=O)N[C@]2(c3ccc(OC(F)(F)F)c(F)c3)CCOc3cccnc32)cc1C(=O)O` [Example 315, (S)-5-((4-(3-fluoro-4-(trifluoromethoxy)phenyl)-3,4-dihydro-2H-pyrano[3,2-b]pyridin-4-yl)carbamoyl)-2-methoxybenzoic acid] stands 834 nM; under `O=C(N[C@]1(c2ccc(OC(F)(F)F)cc2)CCOc2cccnc21)c1cc2nccc(C3CC3)n2n1` [Example 224, (S)-7-cyclopropyl-N-(4-(4-(trifluoromethoxy)phenyl)-3,4-dihydro-2H-pyrano[3,2-b]pyridin-4-yl) pyrazolo[1,5-a] pyrimidine-2-carboxamide formate], 116 nM; under `COC(=O)c1c(C)cc(C(=O)N[C@]2(c3ccc(OC(F)(F)F)c(F)c3)CCOc3cccnc32)cc1C` [Example 181, (S)-methyl 4-((4-(3-fluoro-4-(trifluoromethoxy)phenyl)-3,4-dihydro-2H-pyrano[3,2-b]pyridin-4-yl)carbamoyl)-2,6-dimethylbenzoate], 14 nM.
Take `O=C(N[C@]1(c2ccc(OC(F)(F)F)c(F)c2)CCOc2cccnc21)c1ccc2nccn2c1` [Example 52, (S)-N-(4-(3-fluoro-4-(trifluoromethoxy)phenyl)-3,4-dihydro-2H-pyrano[3,2-b]pyridin-4-yl)imidazo[1,2-a]pyridine-6-carboxamide]: the IC50 is 16 nM.
As to `O=C(N[C@]1(c2ccc(OC(F)(F)F)cc2)CCOc2cccnc21)c1ccc2cccnc2c1` [Example 254, (S)-N-(4-(4-(trifluoromethoxy)phenyl)-3,4-dihydro-2H-pyrano[3,2-b]pyridin-4-yl)quinoline-7-carboxamide fonnate], the 50% inhibitory concentration (IC50) turned out to be 25 nM.
For the compound `COc1cc2cc(C(=O)N[C@]3(c4ccc(OC(F)(F)F)cc4)CCOc4cccnc43)[nH]c2cn1` [Example 274, (S)-5-methoxy-N-(4-(4-(trifluoromethoxy)phenyl)-3,4-dihydro-2H-pyrano[3,2-b]pyridin-4-yl)-1H-pyrrolo[2,3-c] pyridine-2-carboxamide formate], the IC50 worked out at 189 nM.
The same measure for `COC(=O)c1ccc(NC(=O)N[C@]2(c3ccc(OC(F)(F)F)c(F)c3)CCOc3cccnc32)cn1` [Example 87, (S)-methyl 5-(3-(4-(3-fluoro-4-(trifluoromethoxy)phenyl)-3,4-dihydro-2H-pyrano[3,2-b]pyridin-4-yl)ureido)picolinate]: 24 nM.
As for `O=C(N[C@]1(c2ccc(OC(F)(F)F)c(F)c2)CCOc2cccnc21)c1ccc([N+](=O)[O-])cn1` [Example 62, (S)-N-(4-(3-fluoro-4-(trifluoromethoxy)phenyl)-3,4-dihydro-2H-pyrano[3,2-b]pyridin-4-yl)-5-nitropicolinamide], the IC50 came out at 51 nM.
Under `COc1ccc(C(=O)N[C@]2(c3ccc(C(F)(F)F)cc3)CCOc3cccnc32)nn1` [Example 47, (S)-6-methoxy-N-(4-(4-(trifluoromethyl)phenyl)-3,4-dihydro-2H-pyrano[3,2-b]pyridin-4-yl)pyridazine-3-carboxamide] stands 82 nM; under `O=C(Nc1cccnc1)NC1(c2ccc(C(F)(F)F)cc2)CCOc2ccccc21` (stereo not drawn) [Example 70, 1-(pyridin-3-yl)-3-(4-(4-(trifluoromethyl)phenyl)chroman-4-yl)urea], 1350 nM; under `O=C(N[C@]1(c2ccc(C(F)(F)F)cc2)CCOc2cccnc21)c1cc(F)c(O)c(F)c1` [Example 205, (S)-3,5-difluoro-4-hydroxy-N-(4-(4-(trifluoromethyl)phenyl)-3,4-dihydro-2H-pyrano[3,2-b]pyridin-4-yl) benzamide], 4 nM.
Regarding `Cn1nc2c(c1C(=O)N[C@]1(c3ccc(OC(F)(F)F)cc3)CCOc3cccnc31)CCCC2` [Example 270, (S)-2-methyl-N-(4-(4-(trifluoromethoxy)phenyl)-3,4-dihydro-2H-pyrano[3,2-b]pyridin-4-yl)-4,5,6,7-tetrahydro-2H-indazole-3-carboxamide formate], the IC50 worked out at 44 nM.
As for `O=C(NC1(c2ccc(OC(F)(F)F)c(F)c2)CCOc2cccnc21)c1ccc(F)cc1` (stereo not drawn) [Example 6, 4-fluoro-N-(4-(3-fluoro-4-(trifluoromethoxy)phenyl)-3,4-dihydro-2H-pyrano[3,2-b]pyridin-4-yl)benzamide], the half-maximal inhibitory concentration (IC50) turned out to be 34 nM.
Under `O=C(NC1(c2ccc(OC(F)(F)F)cc2)CCOc2cccnc21)c1ccc2oc(=O)[nH]c2c1` (stereo not drawn) [Example 23, 2-oxo-N-(4-(4-(trifluoromethoxy)phenyl)-3,4-dihydro-2H-pyrano[3,2-b]pyridin-4-yl)-2,3-dihydrobenzo[d]oxazole-5-carboxamide] stands 12 nM.
Consider `O=C(NC1(c2ccc(OC(F)(F)F)c(F)c2)CCOc2cccnc21)c1ccccc1` (stereo not drawn) [Example 7, N-(4-(3-fluoro-4-(trifluoromethoxy)phenyl)-3,4-dihydro-2H-pyrano[3,2-b]pyridin-4-yl)benzamide], for which the IC50 amounted to 32 nM.
Under `O=C(N[C@]1(c2ccc(OC(F)(F)F)c(F)c2)CCOc2cccnc21)N1CCC(O)CC1` [Example 102, (S)-N-(4-(3-fluoro-4-(trifluoromethoxy)phenyl)-3,4-dihydro-2H-pyrano[3,2-b]pyridin-4-yl)-4-hydroxypiperidine-1-carboxamide] stands 218 nM; under `Cn1ncc2ccc(C(=O)N[C@]3(c4ccc(C(F)(F)F)cc4)CCOc4cccnc43)cc21` [Example 38, (S)-1-methyl-N-(4-(4-(trifluoromethyl)phenyl)-3,4-dihydro-2H-pyrano[3,2-b]pyridin-4-yl)-1H-indazole-6-carboxamide], 20 nM.
The same measure for `COC(=O)c1ccc(NC(=O)N[C@]2(c3ccc(OC(F)(F)F)c(F)c3)CCOc3cccnc32)nc1` [Example 84, (S)-methyl 6-(3-(4-(3-fluoro-4-(trifluoromethoxy)phenyl)-3,4-dihydro-2H-pyrano[3,2-b]pyridin-4-yl)ureido)nicotinate]: 266 nM; for `O=C(N[C@]1(c2ccc(OC(F)(F)F)cc2)CCOc2cccnc21)c1cc2ccccc2cn1` [Example 248, (S)-N-(4-(4-(trifluoromethoxy)phenyl)-3,4-dihydro-2H-pyrano[3,2-b]pyridin-4-yl)isoquinoline-3-carboxamide formate]: 24 nM.
Under `O=C(N[C@]1(c2ccc(C(F)(F)F)cc2)CCOc2cccnc21)c1ccnnc1` [Example 37, (S)-N-(4-(4-(trifluoromethyl)phenyl)-3,4-dihydro-2H-pyrano[3,2-b]pyridin-4-yl)pyridazine-4-carboxamide] stands 2620 nM; under `O=C(Nc1cnccc1Br)N[C@]1(c2ccc(OC(F)(F)F)c(F)c2)CCOc2cccnc21` [Example 94, (S)-1-(4-bromopyridin-3-yl)-3-(4-(3-fluoro-4-(trifluoromethoxy)phenyl)-3,4-dihydro-2H-pyrano[3,2-b]pyridin-4-yl)urea], 230 nM.
For the compound `COc1ccc(C(=O)N[C@]2(c3ccc(C(F)(F)F)cc3)CCOc3cccnc32)cc1` (single isomer, unassigned) [Example 5], the IC50 is 21 nM.
As to `Nc1ccccc1-c1ccc([C@@]2(NC(=O)c3ccc(F)cc3)CCOc3cccnc32)cc1` [Example 143, (S)-N-(4-(2′-amino-[1,1′-biphenyl]-4-yl)-3,4-dihydro-2H-pyrano[3,2-b]pyridin-4-yl)-4-fluorobenzamide], the IC50 is 176 nM.
Under `O=C(N[C@]1(c2ccc(C(F)(F)F)cc2)CCOc2cccnc21)c1ccns1` [Example 41, (S)-N-(4-(4-(trifluoromethyl)phenyl)-3,4-dihydro-2H-pyrano[3,2-b]pyridin-4-yl)isothiazole-5-carboxamide] stands 87 nM; under `Cn1cc(C(=O)NC2(c3ccc(C(F)(F)F)cc3)CCOc3cccnc32)ccc1=O` (stereo not drawn) [Example 79, 1-methyl-6-oxo-N-(4-(4-(trifluoromethyl)phenyl)-3,4-dihydro-2H-pyrano[3,2-b]pyridin-4-yl)-1,6-dihydropyridine-3-carboxamide], 334 nM.

A word on the IC50: it is the concentration needed to halve the response being measured.
